Assay results: patent US4563467A, “Derivatives of N-iminopyridinium betaines having anti-hypertensive and salidiuretic activity and their preparation” (Provesan S.A., priority 1983, dated 1986)
Structures can show the parent of a compound that is named as a salt. Where two headings read alike, the source gives them in different places.

What was measured:
[1] = Diuretic activity (method of Taylor and Topliss): elimination of urine and urine parameters over 8 hours; format: in vivo, Male Sprague-Dawley (HC/CFY) rats; details: rat; for ED50: po, from regression of log dose against percentage effect; for ED50 / Elimination of urine, 8 h: 8 h; for Elimination in the urine: Cl / Elimination in the urine: K / Elimination in the urine: Na / Osmotic pressure of urine / Urine pH / Elimination of urine, 1 h / Elimination of urine, 2 h / Elimination of urine, 3 h / Elimination of urine, 4 h / Elimination of urine, 6 h / Elimination of urine, 8 h: 40 mg/kg; for Elimination in the urine: Cl / Elimination in the urine: K / Elimination in the urine: Na / Osmotic pressure of urine / Urine pH: over 8 hours; for Elimination of urine, 1 h / Elimination of urine, 2 h / Elimination of urine, 3 h / Elimination of urine, 4 h / Elimination of urine, 6 h / Elimination of urine, 8 h: probang
Procedure: ACTIVITY Method of R. M. Taylor and […]. Med. Pharm. Chem. 1962, 4, 312 Male Sprague-Dawley (HC/CFY) rats weighting between 150 and 200 grams are used. The animals are kept without food and water for 16 hours before the start of the test. The products are administered as a suspension in a 0.5% strength carboxymethylcellulose suspension in a 0.9% strength sodium chloride solution, using a probang, the amount administered being 50 ml/kg of body weight. […] The following parameters are determined in the urine: volume (ml/kg); sodium and potassium (milliequivalents/kg/8 h) (flame photometer); chloride (milliequivalents/kg/8 h) (chloride-meter); pH/8 h (pH-meter) and osmotic pressure (osmotic millimols/kg/8 h) (osmometer). The comparsion animals are given the 0.5% strength carboxymethylcellulose suspension in a 0.9% strength sodium chloride solution in an amount of […] of body weight.

[2] = Acute toxicity, oral, mouse; format: in vivo, CFLP-RE albino mice
Procedure: The product is administered orally in suspension in 5% strength gum arabic to CFLP-RE albino mice weighing 20-25 g and to CFY-RE Sprague-Dawley rats weighing 125-175 g. The volume administered is 25 ml/kg in the mouse except for the maximum dose of 12,800 mg/kg where a volume of 50 ml/kg is administered, and 10 ml/kg in the rat except for the maximum dose of 12,800 mg/kg where a volume of 30 ml/kg is administered.
It was impossible to determine the 50 percent lethal dose since no deaths occurred.

[3] = read-out: ED50, osmotic pressure (m osmol/kg/8 h)
[4] = read-out: ED50, volume of urine (ml/kg/8 h)

Compound	ED50 [1, 3] [mg/kg]	ED50 [1, 4] [mg/kg]	Elimination in the urine: Cl [1] [milliequivalents/kg/8 h]	Elimination in the urine: K [1] [milliequivalents/kg/8 h]	Elimination in the urine: Na [1] [milliequivalents/kg/8 h]	Osmotic pressure of urine [1] [osmotic millimols/kg/8 h]	Urine pH [1]	Elimination of urine, 1 h [1] [mL/kg]	Elimination of urine, 2 h [1] [mL/kg]	Elimination of urine, 3 h [1] [mL/kg]	Elimination of urine, 4 h [1] [mL/kg]	Elimination of urine, 6 h [1] [mL/kg]	Elimination of urine, 8 h [1] [mL/kg]	Mortality ([2]; female, 400 mg/kg)	Mortality ([2]; female, 800 mg/kg)	Mortality ([2]; male, 400 mg/kg)	Mortality ([2]; male, 800 mg/kg)
NS(=O)(=O)c1cc(C2(O)NC(=O)c3ccccc32)ccc1Cl (stereo not shown) [Chlortalidone, reference compound]	7.7	6.9	10.8	1.9	9.3	29.9	6.6	8.7	21.0	30.9	37.6	45.6	49.8	–	–	–	–
NS(=O)(=O)c1cc(C(=O)[N-][n+]2ccccc2)ccc1Cl [Example 1, 1-[(4-chloro-3-sulfamylbenzoyl)-amino]pyridinium hydroxide inner salt]	1.9	4.1	9.2	1.5	8.3	25.5	6.6	7.3	15.2	27.6	35.4	40.5	44.5	–	–	–	–
Cc1cc(C)[n+]([N-]C(=O)c2ccc(Cl)c(S(N)(=O)=O)c2)c(C)c1 [Example 2, 1-[(4-chloro-3-sulfamylbenzoyl)-amino]-2,4,6-trimethylpyridinium hydroxide inner salt]	1.2	4.7	11.8	1.7	9.1	29.7	6.0	10.4	22.3	30.2	36.0	41.5	45.6	0/4	0/4	0/4	0/4
Cc1cccc(C)[n+]1[N-]C(=O)c1ccc(Cl)c(S(N)(=O)=O)c1 [Example 3, 1-[(4-chloro-3-sulfamylbenzoyl)-amino]-2,6-dimethylpyridinium hydroxide inner salt]	2.1	4.6	11.7	1.8	9.5	34.2	6.1	8.4	22.9	31.9	36.7	45.2	50.7	–	–	–	–
NC(=O)c1ccc[n+]([N-]C(=O)c2ccc(Cl)c(S(N)(=O)=O)c2)c1 [Example 4, 1-[(4-chloro-3-sulfamylbenzoyl)-amino]-3-carbamylpyridinium hydroxide inner salt]	–	–	7.0	1.1	6.6	20.8	6.2	5.8	8.6	19.5	24.2	31.1	37.5	–	–	–	–
Cc1cc(C)[n+]([N-]C(=O)c2cc(S(N)(=O)=O)c(Cl)cc2NCc2ccco2)c(C)c1 [Example 5, 1-{[4-chloro-2-(2-furylmethylamino)-5-sulfamylbenzoyl]-amino}-2,4,6-trimethylpyridinium hydroxide inner salt]	–	–	6.2	1.3	3.0	16.6	6.1	1.1	3.4	8.0	12.5	18.4	20.7	–	–	–	–
NS(=O)(=O)c1cc(C(=O)[N-][n+]2c(-c3ccccc3)cc(-c3ccccc3)cc2-c2ccccc2)ccc1Cl [Example 6, 1-[(4-chloro-3-sulfamylbenzoyl)-amino]2,4,6-triphenylpyridinium hydroxide inner salt]	–	–	8.1	1.1	6.6	25.3	6.0	6.9	14.2	19.4	22.2	26.0	27.4	–	–	–	–
Cc1cc(C)[n+](NC(=O)c2ccc(Cl)c(S(N)(=O)=O)c2)c(C)c1.[Cl-] [Example 7, 1-[(4-chloro-3-sulfamylbenzoyl)-amino]-2,4,6-trimethylpyridinium chloride]	–	–	9.3	1.6	–	31.0	6.3	6.2	18.6	28.4	36.1	47.3	52.4	–	–	–	–
Cc1cc(C)[n+](NC(=O)c2cc(S(N)(=O)=O)c(Cl)cc2NCc2ccco2)c(C)c1.Cl.[Cl-] [Example 8, 1-{[4-chloro-2-(2-furylmethylamino)-5-sulfamylbenzoyl]-amino}-2,4,6-trimethylpyridinium chloride hydrochloride]	–	–	7.2	1.2	5.9	23.4	6.7	0.0	11.9	19.6	28.5	34.4	39.2	–	–	–	–
NS(=O)(=O)c1cc(C(=O)N[n+]2c(-c3ccccc3)cc(-c3ccccc3)cc2-c2ccccc2)ccc1Cl.[Cl-] [Example 9, 1-[(4-chloro-3-sulfamylbenzoyl)-amino]-2,4,6-triphenylpyridinium chloride]	–	–	7.5	1.2	6.0	25.1	6.2	5.2	12.6	16.8	19.0	21.5	25.3	–	–	–	–
